Here are results for 36 molecules from the SangsterLogP compilation.

Data set [1] can be described thus: method code SF-HPLC, from DOI: 10.1016/s0021-9673(01)84554-4. The conditions noted are these: for logD: pH 7.4.

By logP is commonly meant the decadic logarithm of the partition coefficient of the neutral form, usually between octanol and water. As to `COc1ccc(CNC(=O)C2(O)C(C)CC3C4CCC5=CC(=O)C=CC5(C)C4(F)C(O)CC32C)cc1` (stereo unspecified), the logP came out at 3.04. What is called logD is lipophilicity at a set pH, counting ionised and neutral species. Lower therefore signals a more hydrophilic compound. Molecule `CC(C)CCNC(=O)C1(O)C(C)CC2C3CCC4=CC(=O)C=CC4(C)C3(F)C(O)CC21C` (stereo unspecified) returned a logD in data set [1] of 3.74. Same read-out and setting: under `COC(=O)CNC(=O)C1(O)C(C)CC2C3CCC4=CC(=O)C=CC4(C)C3(F)C(O)CC21C` (stereo unspecified) stands 1.69; under `CC1CC2C3CCC4=CC(=O)C=CC4(C)C3(F)C(O)CC2(C)C1(O)C(=O)NCCc1ccccc1` (stereo unspecified), 3.66.

Molecule `CC1CC2C3CCC4=CC(=O)C=CC4(C)C3(F)C(O)CC2(C)C1(O)C(=O)NCCCCCCCCCN` (stereo unspecified) had a logP in data set [1] of 4.13.

Regarding `CCCNCCNC(=O)C1(O)C(C)CC2C3CCC4=CC(=O)C=CC4(C)C3(F)C(O)CC21C` (stereo unspecified), the logP in data set [1] was 3.94. With `CC1CC2C3CCC4=CC(=O)C=CC4(C)C3(F)C(O)CC2(C)C1(O)C(=O)NCCCl` (stereo unspecified), the logD in data set [1] turned out to be 2.73. On the same count and under the same terms, the value for `CCNC(=O)C1(O)C(C)CC2C3CCC4=CC(=O)C=CC4(C)C3(F)C(O)CC21C` (stereo unspecified) was 2.07. `COc1ccccc1CNC(=O)C1(O)C(C)CC2C3CCC4=CC(=O)C=CC4(C)C3(F)C(O)CC21C` (stereo unspecified) had a logP of 3.09. On the same count and under the same terms, the value for `CC1CC2C3CCC4=CC(=O)C=CC4(C)C3(F)C(O)CC2(C)C1(O)C(=O)NCc1ccc([N+](=O)[O-])cc1` (stereo unspecified) was 3.37. With `CCCCCNC(=O)C1(O)C(C)CC2C3CCC4=CC(=O)C=CC4(C)C3(F)C(O)CC21C` (stereo unspecified), the logD in data set [1] is 3.64. Still for that read-out and setting: the value for `CC(C)CCCNC(=O)C1(O)C(C)CC2C3CCC4=CC(=O)C=CC4(C)C3(F)C(O)CC21C` (stereo unspecified) was 3.93. Regarding `CC1CC2C3CCC4=CC(=O)C=CC4(C)C3(F)C(O)CC2(C)C1(O)C(=O)NCc1ccccc1` (stereo unspecified), the logD in data set [1] is 3.28. On to `CCCNC(=O)C1(O)C(C)CC2C3CCC4=CC(=O)C=CC4(C)C3(F)C(O)CC21C` (stereo unspecified), for which the logD in data set [1] came out at 2.59.

The molecule `CCCCNC(=O)C1(O)C(C)CC2C3CCC4=CC(=O)C=CC4(C)C3(F)C(O)CC21C` (stereo unspecified) came in with a logD in data set [1] of 3.1. Turning to `CC1CC2C3CCC4=CC(=O)C=CC4(C)C3(F)C(O)CC2(C)C1(O)C(=O)NCCCCN` (stereo unspecified), in data set [1], the logP worked out at 2.3. The molecule `COc1cccc(CNC(=O)C2(O)CC3C4CCC5=CC(=O)C=CC5(C)C4(F)C(O)CC32C)c1` (stereo unspecified) had a logP of 3.15. Molecule `C[C@@H]1C[C@H]2[C@@H]3CCC4=CC(=O)C=C[C@]4(C)[C@@]3(F)[C@@H](O)C[C@]2(C)[C@@]1(O)C(N)=O` showed a logD in data set [1] of 1.41. On to `CC1CC2C3CCC4=CC(=O)C=CC4(C)C3(F)C(O)CC2(C)C1(O)C(=O)NCC#N` (stereo unspecified), for which, in data set [1], the logD amounted to 1.57. The same measure, in the same setting: under `CCCCCCNC(=O)C1(O)C(C)CC2C3CCC4=CC(=O)C=CC4(C)C3(F)C(O)CC21C` (stereo unspecified) stands 4.54; under `CC1CC2C3CCC4=CC(=O)C=CC4(C)C3(F)C(O)CC2(C)C1(O)C(=O)NC(CO)c1ccccc1` (stereo unspecified), 2.89. Same read-out and setting: the value for `CC1CC2C3CCC4=CC(=O)C=CC4(C)C3(F)C(O)CC2(C)C1(O)C(=O)NC1CCCCC1` (stereo unspecified) was 3.54; that for `CNC(=O)C1(O)C(C)CC2C3CCC4=CC(=O)C=CC4(C)C3(F)C(O)CC21C` (stereo unspecified) was 1.54. In data set [1], `CC1CC2C3CCC4=CC(=O)C=CC4(C)C3(F)C(O)CC2(C)C1(O)C(=O)NCCCCCC(=O)O` (stereo unspecified) gave a logP of 2.29. `CC(C)CCCCNC(=O)C1(O)C(C)CC2C3CCC4=CC(=O)C=CC4(C)C3(F)C(O)CC21C` (stereo unspecified) registered a logP of 3.91. Regarding `CC1CC2C3CCC4=CC(=O)C=CC4(C)C3(F)C(O)CC2(C)C1(O)C(=O)NC(C)(C)C` (stereo unspecified), in data set [1], the logD stood at 3.2. On the same count and under the same terms, under `CC(C)NC(=O)C1(O)C(C)CC2C3CCC4=CC(=O)C=CC4(C)C3(F)C(O)CC21C` (stereo unspecified) stands 2.43. As for `CC1CC2C3CCC4=CC(=O)C=CC4(C)C3(F)C(O)CC2(C)C1(O)C(=O)NCCCCCCN` (stereo unspecified), in data set [1], the log partition coefficient (logP) is 2.61.

In turn, `CC(C)CNC(=O)C1(O)C(C)CC2C3CCC4=CC(=O)C=CC4(C)C3(F)C(O)CC21C` (stereo unspecified) yielded a logD in data set [1] of 3.01. With `C#CCNC(=O)C1(O)C(C)CC2C3CCC4=CC(=O)C=CC4(C)C3(F)C(O)CC21C` (stereo unspecified), the logD in data set [1] was 2. As for `CC1CC2C3CCC4=CC(=O)C=CC4(C)C3(F)C(O)CC2(C)C1(O)C(=O)NCc1ccc(Cl)cc1` (stereo unspecified), the logP stood at 3.71. Take `COC(=O)C(Cc1ccccc1)NC(=O)C1(O)C(C)CC2C3CCC4=CC(=O)C=CC4(C)C3(F)C(O)CC21C` (stereo unspecified): the log distribution coefficient (logD) in data set [1] was found to be 3.4. Turning to `CC1CC2C3CCC4=CC(=O)C=CC4(C)C3(F)C(O)CC2(C)C1(O)C(=O)NCC(=O)O` (stereo unspecified), the logP in data set [1] was 1.2. The same measure, in the same setting: under `CC1CC2C3CCC4=CC(=O)C=CC4(C)C3(F)C(O)CC2(C)C1(O)C(=O)NCCCCCCCCN` (stereo unspecified) stands 3.72. In turn, `CC1CC2C3CCC4=CC(=O)C=CC4(C)C3(F)C(O)CC2(C)C1(O)C(=O)NCCO` (stereo unspecified) gave a logD in data set [1] of 1.51. In the case of `CCOC(CNC(=O)C1(O)C(C)CC2C3CCC4=CC(=O)C=CC4(C)C3(F)C(O)CC21C)OCC` (stereo unspecified), the log distribution coefficient (logD) in data set [1] is 2.65.
